Results as given in patent US20240066008A1, “Device and Antitumor Drug for the Treatment of Neoplastic Cells” (Telea Electronic Engineering SRL, priority 2021, published 2024).

Tested on: A172 glioblastoma cells
Experiment: Cell viability, Trypan blue exclusion assay
Type: cell-based
Conditions: Homo sapiens, A 172, TMZ 10 μM for 144 hours in combination with 24-hour QMR treatment (4 MHz current waves), vs TMZ alone, FIG. 12b, read-out: cell viability reduced more than the reduction obtained in cells treated with TMZ drug alone
Description: Glioblastoma cell lines A172, T98G and U87MG were used. A172 and T98G cells (Sigma-Aldrich, St. Louis, MO, USA) were cultured in Dulbecco's Modified Eagle's Medium/Nutrient Mixture F-12 (DMEM/F12 GlutaMAX, Gibco, Thermo Fisher Scientific, Waltham, MA, USA) added with 10% foetal bovine serum (FBS) (Qualified Australian, Gibco, Thermo Fisher Scientific) and 1% penicillin/streptomycin (Sigma-Aldrich).
The cell lines were stimulated with QMR using a prototype QMR device from the company Telea (Telea Electronic Engineering, Sandrigo, VI, Italy). The device, suitably adapted for the present in vitro experiments, generated high-frequency sinusoidal alternating electric current waves of 4 MHz with harmonics from 4 to 64 MHz and had the following data: power supply 100÷230 V˜50/60 Hz; maximum output power, 5 W/400Ω.
QMR was applied to the cells using a pair of electrodes that were placed inside a 100 mm Petri dish, at the edge, and connected to the generator device. […] This value was measured by means of three independent measurements with a data-logger probe (iLog, Escort Scunthorpe, UK) placed in the culture medium. […]
For these analyses, the cells were treated for 144 hours with 10-25 μM of TMZ administered at the same time as or after QMR stimulation. […] Cell viability, apoptosis and the cell cycle were assessed after 144 hours. […]

Question: How did the cytotoxicity at 10 µM turn out when `Cn1nnc2c(C(N)=O)ncn2c1=O` [TMZ, temozolomide] was run?
Answer: ~12%
